Experimental data taken from PubChem BioAssay AID1259407 (Chemical Carcinogenesis Research Information System (CCRIS), 2018).
Calls of active or inactive are those of the source. The rule behind the calls is not given here.

Tested on: CCRIS mutagenicity, Ames/micronucleus/aberration tests
Assay: CCRIS mutagenicity studies
[1] = Test System: AMES SALMONELLA TYPHIMURIUM, Strain/Indicator: TA98, Metabolic Activation: HAMSTER, LIVER, S-9, AROCLOR 1254, Method: STANDARD PLATE
[2] = Test System: AMES SALMONELLA TYPHIMURIUM, Strain/Indicator: TA98, Metabolic Activation: NONE, Method: STANDARD PLATE
[3] = Test System: AMES SALMONELLA TYPHIMURIUM, Strain/Indicator: TA98, Metabolic Activation: RAT, LIVER, S-9, AROCLOR 1254, Method: STANDARD PLATE
[4] = Test System: AMES SALMONELLA TYPHIMURIUM, Strain/Indicator: TA100, Metabolic Activation: HAMSTER, LIVER, S-9, AROCLOR 1254, Method: STANDARD PLATE
[5] = Test System: AMES SALMONELLA TYPHIMURIUM, Strain/Indicator: TA100, Metabolic Activation: NONE, Method: STANDARD PLATE
[6] = Test System: AMES SALMONELLA TYPHIMURIUM, Strain/Indicator: TA100, Metabolic Activation: RAT, LIVER, S-9, AROCLOR 1254, Method: STANDARD PLATE
[7] = Test System: AMES SALMONELLA TYPHIMURIUM, Strain/Indicator: TA1535, Metabolic Activation: HAMSTER, LIVER, S-9, AROCLOR 1254, Method: STANDARD PLATE
[8] = Test System: AMES SALMONELLA TYPHIMURIUM, Strain/Indicator: TA1535, Metabolic Activation: NONE, Method: STANDARD PLATE
[9] = Test System: AMES SALMONELLA TYPHIMURIUM, Strain/Indicator: TA1535, Metabolic Activation: RAT, LIVER, S-9, AROCLOR 1254, Method: STANDARD PLATE
[10] = Test System: AMES SALMONELLA TYPHIMURIUM, Strain/Indicator: TA1537, Metabolic Activation: HAMSTER, LIVER, S-9, AROCLOR 1254, Method: STANDARD PLATE
[11] = Test System: AMES SALMONELLA TYPHIMURIUM, Strain/Indicator: TA1537, Metabolic Activation: NONE, Method: STANDARD PLATE
[12] = Test System: AMES SALMONELLA TYPHIMURIUM, Strain/Indicator: TA1537, Metabolic Activation: RAT, LIVER, S-9, AROCLOR 1254, Method: STANDARD PLATE
[13] = Test System: AMES SALMONELLA TYPHIMURIUM, Strain/Indicator: TA1538, Metabolic Activation: HAMSTER, LIVER, S-9, AROCLOR 1254, Method: STANDARD PLATE
[14] = Test System: AMES SALMONELLA TYPHIMURIUM, Strain/Indicator: TA1538, Metabolic Activation: NONE, Method: STANDARD PLATE
[15] = Test System: AMES SALMONELLA TYPHIMURIUM, Strain/Indicator: TA1538, Metabolic Activation: RAT, LIVER, S-9, AROCLOR 1254, Method: STANDARD PLATE
[16] = Test System: MOUSE LYMPHOMA, Strain/Indicator: L5178Y (TK+/TK-), Metabolic Activation: NONE, Method: SUSPENSION/PLATE
[17] = Test System: MOUSE LYMPHOMA, Strain/Indicator: L5178Y (TK+/TK-), Metabolic Activation: RAT, LIVER, S-9, AROCLOR 1254, Method: SUSPENSION/PLATE

Measured: mutagenic call

COc1cc(OC)c2nc3occc3c(OC)c2c1
active: Test System: AMES SALMONELLA TYPHIMURIUM, Strain/Indicator: TA98, Metabolic Activation: RAT, LIVER, S-9, PHENOBARBITAL, Method: STANDARD PLATE active; positive | Test System: AMES SALMONELLA TYPHIMURIUM, Strain/Indicator: TA100, Metabolic Activation: RAT, LIVER, S-9, PHENOBARBITAL, Method: STANDARD PLATE active; positive

CCCCCCCCCC/C=C/C1CC(=O)OC1=O (stereo not drawn)
inactive: [1] inactive; negative | [2] inactive; negative | [3] inactive; negative | [4] inactive; negative | [5] inactive; negative | [6] inactive; negative | [7] inactive; negative | [8] inactive; negative | [9] inactive; negative | [10] inactive; negative | [11] inactive; negative | [12] inactive; negative | [13] inactive; negative | [14] inactive; negative | [15] inactive; negative | [16] inactive; negative. reevaluation of results: inconclusive | [17] inactive; negative. reevaluation of results: negative

ClNc1nc(NCl)nc(NCl)n1
active: Test System: Mouse lymphoma, Strain/Indicator: L5178Y (tk+/tk-), Metabolic Activation: Rat, Liver, S-9, Aroclor 1254, Method: Suspension/plate active; positive
inactive: [1] inactive; negative | [2] inactive; negative | [3] inactive; negative | [4] inactive; negative | [5] inactive; negative | [6] inactive; negative | [7] inactive; negative | [8] inactive; negative | [9] inactive; negative | [10] inactive; negative | [11] inactive; negative | [12] inactive; negative | [13] inactive; negative | [14] inactive; negative | [15] inactive; negative | [16] inactive; negative. reevaluation of results: negative

CCCCC(CC)COC(=O)C(C#N)=C(c1ccccc1)c1ccccc1 (stereo not drawn)
inactive: Test System: AMES SALMONELLA TYPHIMURIUM, Strain/Indicator: TA98, Metabolic Activation: HAMSTER, LIVER, S-9, AROCLOR 1254 (10%), Method: PREINCUBATION inactive; negative | Test System: AMES SALMONELLA TYPHIMURIUM, Strain/Indicator: TA98, Metabolic Activation: NONE, Method: PREINCUBATION inactive; negative | Test System: AMES SALMONELLA TYPHIMURIUM, Strain/Indicator: TA98, Metabolic Activation: RAT, LIVER, S-9, AROCLOR 1254 (10%), Method: PREINCUBATION inactive; negative | Test System: AMES SALMONELLA TYPHIMURIUM, Strain/Indicator: TA100, Metabolic Activation: HAMSTER, LIVER, S-9, AROCLOR 1254 (10%), Method: PREINCUBATION inactive; negative | Test System: AMES SALMONELLA TYPHIMURIUM, Strain/Indicator: TA100, Metabolic Activation: NONE, Method: PREINCUBATION inactive; negative | Test System: AMES SALMONELLA TYPHIMURIUM, Strain/Indicator: TA100, Metabolic Activation: RAT, LIVER, S-9, AROCLOR 1254 (10%), Method: PREINCUBATION inactive; negative | Test System: AMES SALMONELLA TYPHIMURIUM, Strain/Indicator: TA1535, Metabolic Activation: HAMSTER, LIVER, S-9, AROCLOR 1254 (10%), Method: PREINCUBATION inactive; negative | Test System: AMES SALMONELLA TYPHIMURIUM, Strain/Indicator: TA1535, Metabolic Activation: NONE, Method: PREINCUBATION inactive; negative | Test System: AMES SALMONELLA TYPHIMURIUM, Strain/Indicator: TA1535, Metabolic Activation: RAT, LIVER, S-9, AROCLOR 1254 (10%), Method: PREINCUBATION inactive; negative | Test System: AMES SALMONELLA TYPHIMURIUM, Strain/Indicator: TA1537, Metabolic Activation: HAMSTER, LIVER, S-9, AROCLOR 1254 (10%), Method: PREINCUBATION inactive; negative | Test System: AMES SALMONELLA TYPHIMURIUM, Strain/Indicator: TA1537, Metabolic Activation: NONE, Method: PREINCUBATION inactive; negative | Test System: AMES SALMONELLA TYPHIMURIUM, Strain/Indicator: TA1537, Metabolic Activation: RAT, LIVER, S-9, AROCLOR 1254 (10%), Method: PREINCUBATION inactive; negative | [16] inactive; negative | [17] inactive; negative

CC(=O)C1=CC[C@H]2C3=CCC4=C[C@@H](O)[C@H](O)C[C@]4(C)C3C[C@@H](O)[C@]12C (stereo partly drawn)
inactive: Test System: AMES SALMONELLA TYPHIMURIUM, Strain/Indicator: TM677, Metabolic Activation: NONE, Method: STANDARD PLATE inactive; negative | Test System: AMES SALMONELLA TYPHIMURIUM, Strain/Indicator: TM677, Metabolic Activation: RAT, LIVER, S-9, AROCLOR 1254, Method: STANDARD PLATE inactive; negative | Test System: CHINESE HAMSTER OVARY, Strain/Indicator: CHO/6-THIOGUANINE, Metabolic Activation: NONE, Method: STANDARD PLATE inactive; negative

Oc1cc2ccccc2c2cc3c(ccc4ccccc43)nc12
inactive: Test System: AMES SALMONELLA TYPHIMURIUM, Strain/Indicator: TA100, Metabolic Activation: GUINEA PIG, LIVER, S-9, 3-METHYLCHOLANTHRENE, Method: STANDARD PLATE inactive; negative | Test System: CHINESE HAMSTER V-79, Strain/Indicator: V-79/6-THIOGUANINE, Metabolic Activation: GUINEA PIG, LIVER, S-9, 3-METHYLCHOLANTHRENE inactive; negative

CCc1c(O)c2c(c(O)c1OC)C(=O)C(OC)=C(OC)C2=O
inactive: Test System: AMES SALMONELLA TYPHIMURIUM, Strain/Indicator: TA98, Metabolic Activation: MICROSOMAL FRACTION, FULLY ACTIVATED, AND RAT LIVER S-9, Method: STANDARD PLATE inactive; negative | Test System: AMES SALMONELLA TYPHIMURIUM, Strain/Indicator: TA98, Metabolic Activation: MICROSOMAL FRACTION, NON-FULLY ACTIVATED, Method: STANDARD PLATE inactive; negative | Test System: AMES SALMONELLA TYPHIMURIUM, Strain/Indicator: TA100, Metabolic Activation: MICROSOMAL FRACTION, FULLY ACTIVATED, AND RAT LIVER S-9, Method: STANDARD PLATE inactive; negative | Test System: AMES SALMONELLA TYPHIMURIUM, Strain/Indicator: TA100, Metabolic Activation: MICROSOMAL FRACTION, NON-FULLY ACTIVATED, Method: STANDARD PLATE inactive; negative | Test System: AMES SALMONELLA TYPHIMURIUM, Strain/Indicator: TA1537, Metabolic Activation: MICROSOMAL FRACTION, FULLY ACTIVATED, AND RAT LIVER S-9, Method: STANDARD PLATE inactive; negative | Test System: AMES SALMONELLA TYPHIMURIUM, Strain/Indicator: TA1537, Metabolic Activation: MICROSOMAL FRACTION, NON-FULLY ACTIVATED, Method: STANDARD PLATE inactive; negative

CC(=O)[O-].CC(=O)[O-].[Cd+2]
active: End Point: IN VITRO MICRONUCLEUS, Test System: CHL/IU CELLS, Metabolic Activation: NONE active; positive | Test System: CHINESE HAMSTER OVARY, Strain/Indicator: CHO-K1 (HPRT)/6-THIOGUANINE, Metabolic Activation: NONE active; positive
